From ChEMBL document CHEMBL5442175, “EUbOPEN Chemogenomics Library - PDSP Secondary Binding” (2024)
Where a name gives a salt, the structure may show the parent alone. One block for each compound: values may come before it.

Columns and labels:
[1] = target: Kappa-type opioid receptor (Homo sapiens, UniProt P41145); test: (§1) PDSP Secondary Binding target: OPRK1 - Compounds are tested at 10 uM concentration, plate are incubated at room temperature in the dark for 90 minutes. Reaction are stopped by vacuum filtration onto 0.3% polyethyleneimine soaked filter mats using Filtermate harvester. Scintillation cocktail is then melted onto microwave-dried filters on a hot plate and the radio activity is counted in Microbia counter.
Chain of Kappa-type opioid receptor (P41145 whole entry): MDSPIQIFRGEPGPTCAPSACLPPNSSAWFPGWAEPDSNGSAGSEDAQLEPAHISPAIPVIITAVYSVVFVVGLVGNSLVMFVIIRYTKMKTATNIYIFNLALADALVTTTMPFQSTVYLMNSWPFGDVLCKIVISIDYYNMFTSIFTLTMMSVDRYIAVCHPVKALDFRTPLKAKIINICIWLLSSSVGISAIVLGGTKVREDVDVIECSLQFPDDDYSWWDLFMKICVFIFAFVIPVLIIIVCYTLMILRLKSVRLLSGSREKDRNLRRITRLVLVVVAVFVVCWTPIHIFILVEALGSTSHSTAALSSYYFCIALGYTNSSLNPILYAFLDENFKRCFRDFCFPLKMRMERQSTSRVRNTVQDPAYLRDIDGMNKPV

[2] = target: 5-hydroxytryptamine receptor 2B (Homo sapiens, UniProt P41595); test: as §1, with “HTR2B” for “OPRK1”
Chain of 5-hydroxytryptamine receptor 2B (P41595 whole entry): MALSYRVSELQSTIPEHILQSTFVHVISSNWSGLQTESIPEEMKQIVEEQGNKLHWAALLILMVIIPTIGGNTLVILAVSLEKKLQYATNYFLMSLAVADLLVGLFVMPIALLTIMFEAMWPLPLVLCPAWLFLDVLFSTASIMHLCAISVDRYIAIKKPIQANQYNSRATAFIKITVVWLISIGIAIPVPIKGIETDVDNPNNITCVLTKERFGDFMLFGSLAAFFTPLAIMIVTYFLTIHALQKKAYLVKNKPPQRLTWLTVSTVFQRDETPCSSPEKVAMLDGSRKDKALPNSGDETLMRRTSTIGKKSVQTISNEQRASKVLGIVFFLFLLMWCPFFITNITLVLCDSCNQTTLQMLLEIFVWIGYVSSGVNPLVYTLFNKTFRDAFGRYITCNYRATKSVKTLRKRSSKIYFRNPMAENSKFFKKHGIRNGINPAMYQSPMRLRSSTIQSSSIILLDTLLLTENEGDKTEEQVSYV

[3] = target: Translocator protein (Homo sapiens, UniProt P30536); test: as §1, with “TSPO” for “OPRK1”
[4] = target: T1, Muscarinic acetylcholine receptor M2 (Homo sapiens, UniProt P08172); test: as §1, with “CHRM2” for “OPRK1”
T1 sequence (P08172 whole entry): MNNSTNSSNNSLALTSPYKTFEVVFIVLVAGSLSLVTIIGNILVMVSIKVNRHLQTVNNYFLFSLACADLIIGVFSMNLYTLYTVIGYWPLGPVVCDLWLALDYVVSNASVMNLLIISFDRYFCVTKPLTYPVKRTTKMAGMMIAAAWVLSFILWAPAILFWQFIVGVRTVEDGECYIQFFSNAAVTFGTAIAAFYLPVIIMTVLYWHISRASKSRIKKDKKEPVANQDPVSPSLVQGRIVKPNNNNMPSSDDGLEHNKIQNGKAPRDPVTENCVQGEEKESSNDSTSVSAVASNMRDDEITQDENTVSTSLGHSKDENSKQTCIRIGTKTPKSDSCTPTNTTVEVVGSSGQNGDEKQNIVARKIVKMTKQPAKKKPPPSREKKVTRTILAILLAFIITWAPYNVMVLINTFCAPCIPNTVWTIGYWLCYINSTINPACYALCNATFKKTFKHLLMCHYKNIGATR

[5] = target: Sigma non-opioid intracellular receptor 1 (Homo sapiens, UniProt Q99720); test: as §1, with “SIGMAR1” for “OPRK1”
Chain of Sigma non-opioid intracellular receptor 1 (Q99720 whole entry): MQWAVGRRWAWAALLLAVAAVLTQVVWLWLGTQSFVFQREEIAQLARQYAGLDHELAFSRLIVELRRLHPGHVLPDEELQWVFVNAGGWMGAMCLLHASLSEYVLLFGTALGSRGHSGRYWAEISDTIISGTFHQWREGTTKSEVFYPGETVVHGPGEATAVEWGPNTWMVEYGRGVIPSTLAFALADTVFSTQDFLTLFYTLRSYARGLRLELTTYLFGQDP

[6] = target: D(1A) dopamine receptor (Homo sapiens, UniProt P21728); test: as §1, with “DRD1” for “OPRK1”
Chain of D(1A) dopamine receptor (P21728 whole entry): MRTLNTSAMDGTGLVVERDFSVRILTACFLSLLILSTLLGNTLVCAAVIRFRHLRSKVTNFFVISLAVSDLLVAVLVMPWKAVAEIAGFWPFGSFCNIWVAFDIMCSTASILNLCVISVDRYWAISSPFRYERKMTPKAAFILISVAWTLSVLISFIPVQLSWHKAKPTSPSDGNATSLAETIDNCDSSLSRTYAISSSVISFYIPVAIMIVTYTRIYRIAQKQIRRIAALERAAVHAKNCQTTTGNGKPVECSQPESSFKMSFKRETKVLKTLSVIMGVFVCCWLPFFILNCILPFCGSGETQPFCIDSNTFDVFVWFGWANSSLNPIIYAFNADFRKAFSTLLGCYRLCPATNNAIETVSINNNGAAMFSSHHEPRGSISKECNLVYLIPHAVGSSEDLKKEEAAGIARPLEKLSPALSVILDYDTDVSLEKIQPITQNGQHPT

[7] = target: 5-hydroxytryptamine receptor 2A (Homo sapiens, UniProt P28223); test: as §1, with “HTR2A” for “OPRK1”
Chain of 5-hydroxytryptamine receptor 2A (P28223 whole entry): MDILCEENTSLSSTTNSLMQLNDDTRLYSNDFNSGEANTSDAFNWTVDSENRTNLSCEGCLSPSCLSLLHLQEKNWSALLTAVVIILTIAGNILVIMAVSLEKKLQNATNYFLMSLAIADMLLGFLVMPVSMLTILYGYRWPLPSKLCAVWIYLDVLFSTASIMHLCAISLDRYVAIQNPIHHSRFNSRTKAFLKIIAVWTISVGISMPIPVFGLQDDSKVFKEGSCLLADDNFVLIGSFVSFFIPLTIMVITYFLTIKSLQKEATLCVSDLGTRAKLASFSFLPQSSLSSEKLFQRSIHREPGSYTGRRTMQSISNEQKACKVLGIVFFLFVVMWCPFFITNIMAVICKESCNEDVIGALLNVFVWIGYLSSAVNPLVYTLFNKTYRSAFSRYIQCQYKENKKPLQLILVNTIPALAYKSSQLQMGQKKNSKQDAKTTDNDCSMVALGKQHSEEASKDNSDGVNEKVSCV

[8] = target: Beta-2 adrenergic receptor (Homo sapiens, UniProt P07550); test: as §1, with “ADRB2” for “OPRK1”
Chain of Beta-2 adrenergic receptor (P07550 whole entry): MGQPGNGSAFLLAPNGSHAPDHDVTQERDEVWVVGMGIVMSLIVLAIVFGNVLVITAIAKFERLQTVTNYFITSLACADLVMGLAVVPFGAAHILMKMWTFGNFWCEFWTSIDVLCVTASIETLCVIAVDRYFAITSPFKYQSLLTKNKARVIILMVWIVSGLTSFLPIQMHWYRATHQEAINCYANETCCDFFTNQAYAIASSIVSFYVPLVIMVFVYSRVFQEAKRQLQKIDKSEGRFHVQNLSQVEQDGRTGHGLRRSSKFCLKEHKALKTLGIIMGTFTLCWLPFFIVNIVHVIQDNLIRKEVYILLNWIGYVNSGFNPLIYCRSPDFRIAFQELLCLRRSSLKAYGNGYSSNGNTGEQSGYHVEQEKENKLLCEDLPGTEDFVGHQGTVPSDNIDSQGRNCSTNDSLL

[9] = target: D(3) dopamine receptor (Homo sapiens, UniProt P35462); test: as §1, with “DRD3” for “OPRK1”
Chain of D(3) dopamine receptor (P35462 whole entry): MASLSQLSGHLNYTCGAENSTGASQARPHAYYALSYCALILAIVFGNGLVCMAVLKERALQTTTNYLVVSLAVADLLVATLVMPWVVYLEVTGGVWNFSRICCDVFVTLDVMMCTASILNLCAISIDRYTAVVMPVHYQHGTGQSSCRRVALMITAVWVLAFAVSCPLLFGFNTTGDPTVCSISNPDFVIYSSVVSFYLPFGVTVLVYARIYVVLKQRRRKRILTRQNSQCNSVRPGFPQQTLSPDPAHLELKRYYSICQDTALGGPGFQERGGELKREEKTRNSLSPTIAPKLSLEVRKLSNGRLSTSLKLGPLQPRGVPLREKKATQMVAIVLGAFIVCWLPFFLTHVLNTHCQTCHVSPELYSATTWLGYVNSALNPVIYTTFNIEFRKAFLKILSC

[10] = target: T2, Muscarinic acetylcholine receptor M5 (Homo sapiens, UniProt P08912); test: as §1, with “CHRM5” for “OPRK1”
T2 sequence (P08912 whole entry): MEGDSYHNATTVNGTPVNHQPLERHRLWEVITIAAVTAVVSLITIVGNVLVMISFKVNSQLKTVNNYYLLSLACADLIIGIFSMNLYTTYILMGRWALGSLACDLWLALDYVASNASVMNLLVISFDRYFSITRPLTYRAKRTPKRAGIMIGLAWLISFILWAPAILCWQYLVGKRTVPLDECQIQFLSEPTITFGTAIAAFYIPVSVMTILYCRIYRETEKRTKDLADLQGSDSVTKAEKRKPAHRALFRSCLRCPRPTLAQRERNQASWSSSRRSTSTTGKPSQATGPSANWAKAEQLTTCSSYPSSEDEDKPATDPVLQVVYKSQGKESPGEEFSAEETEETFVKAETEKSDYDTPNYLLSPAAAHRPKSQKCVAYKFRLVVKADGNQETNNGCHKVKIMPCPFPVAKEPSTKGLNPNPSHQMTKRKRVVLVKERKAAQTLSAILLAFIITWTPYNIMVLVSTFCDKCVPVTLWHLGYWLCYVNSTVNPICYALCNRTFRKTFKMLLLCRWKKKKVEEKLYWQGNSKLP

[11] = target: D(1B) dopamine receptor (Homo sapiens, UniProt P21918); test: as §1, with “DRD5” for “OPRK1”
Chain of D(1B) dopamine receptor (P21918 whole entry): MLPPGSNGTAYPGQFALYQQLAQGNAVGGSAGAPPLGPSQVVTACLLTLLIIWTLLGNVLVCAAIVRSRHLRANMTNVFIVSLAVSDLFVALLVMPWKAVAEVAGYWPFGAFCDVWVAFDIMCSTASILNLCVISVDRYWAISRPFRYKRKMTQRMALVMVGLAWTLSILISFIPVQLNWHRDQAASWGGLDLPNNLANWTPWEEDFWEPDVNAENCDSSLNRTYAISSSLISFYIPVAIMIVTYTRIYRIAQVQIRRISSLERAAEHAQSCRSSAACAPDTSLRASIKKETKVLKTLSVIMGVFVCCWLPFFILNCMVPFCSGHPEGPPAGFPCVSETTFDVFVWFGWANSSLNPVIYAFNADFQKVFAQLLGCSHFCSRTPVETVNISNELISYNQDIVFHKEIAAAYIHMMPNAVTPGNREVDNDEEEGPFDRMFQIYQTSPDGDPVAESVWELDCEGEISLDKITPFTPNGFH

[12] = target: Sigma intracellular receptor 2 (Homo sapiens, UniProt Q5BJF2); test: as §1, with “TMEM97” for “OPRK1”
Chain of Sigma intracellular receptor 2 (Q5BJF2 whole entry): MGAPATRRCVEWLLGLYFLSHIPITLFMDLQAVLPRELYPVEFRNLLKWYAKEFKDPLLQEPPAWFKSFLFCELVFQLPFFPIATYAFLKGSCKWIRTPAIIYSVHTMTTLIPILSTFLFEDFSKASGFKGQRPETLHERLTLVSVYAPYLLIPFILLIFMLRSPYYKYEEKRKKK

[13] = target: T3, Muscarinic acetylcholine receptor M1 (Homo sapiens, UniProt P11229); test: as §1, with “CHRM1” for “OPRK1”
T3 sequence (P11229 whole entry): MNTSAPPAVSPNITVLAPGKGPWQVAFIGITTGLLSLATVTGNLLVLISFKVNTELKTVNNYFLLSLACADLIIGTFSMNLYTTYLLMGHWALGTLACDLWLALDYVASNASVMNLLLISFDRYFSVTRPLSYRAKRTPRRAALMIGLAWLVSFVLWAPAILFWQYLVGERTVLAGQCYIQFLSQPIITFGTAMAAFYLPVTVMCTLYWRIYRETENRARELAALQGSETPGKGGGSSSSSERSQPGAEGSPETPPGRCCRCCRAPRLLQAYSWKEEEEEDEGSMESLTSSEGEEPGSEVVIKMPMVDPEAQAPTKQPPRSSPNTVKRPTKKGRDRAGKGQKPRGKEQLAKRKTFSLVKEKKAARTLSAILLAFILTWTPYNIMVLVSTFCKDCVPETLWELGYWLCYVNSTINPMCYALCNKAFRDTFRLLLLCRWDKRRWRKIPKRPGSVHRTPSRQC

[14] = target: Muscarinic acetylcholine receptor M3 (Homo sapiens, UniProt P20309); test: as §1, with “CHRM3” for “OPRK1”
Chain of Muscarinic acetylcholine receptor M3 (P20309 whole entry): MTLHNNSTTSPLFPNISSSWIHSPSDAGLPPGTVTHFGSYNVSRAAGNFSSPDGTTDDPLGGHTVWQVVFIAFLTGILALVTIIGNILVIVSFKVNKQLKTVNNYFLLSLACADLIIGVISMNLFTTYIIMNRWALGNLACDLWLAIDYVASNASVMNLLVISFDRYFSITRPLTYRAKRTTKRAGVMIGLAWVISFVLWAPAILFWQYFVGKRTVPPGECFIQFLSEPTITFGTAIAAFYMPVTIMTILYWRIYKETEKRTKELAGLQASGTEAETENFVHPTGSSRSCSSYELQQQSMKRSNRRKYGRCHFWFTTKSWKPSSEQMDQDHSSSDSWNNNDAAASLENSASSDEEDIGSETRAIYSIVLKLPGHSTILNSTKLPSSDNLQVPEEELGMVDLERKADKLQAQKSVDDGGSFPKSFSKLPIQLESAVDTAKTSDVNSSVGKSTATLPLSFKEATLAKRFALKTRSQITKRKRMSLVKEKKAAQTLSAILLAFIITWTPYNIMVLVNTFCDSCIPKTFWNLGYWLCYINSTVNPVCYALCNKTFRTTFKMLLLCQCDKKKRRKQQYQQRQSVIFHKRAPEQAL

[15] = target: T4, Muscarinic acetylcholine receptor M4 (Homo sapiens, UniProt P08173); test: as §1, with “CHRM4” for “OPRK1”
T4 sequence (P08173 whole entry): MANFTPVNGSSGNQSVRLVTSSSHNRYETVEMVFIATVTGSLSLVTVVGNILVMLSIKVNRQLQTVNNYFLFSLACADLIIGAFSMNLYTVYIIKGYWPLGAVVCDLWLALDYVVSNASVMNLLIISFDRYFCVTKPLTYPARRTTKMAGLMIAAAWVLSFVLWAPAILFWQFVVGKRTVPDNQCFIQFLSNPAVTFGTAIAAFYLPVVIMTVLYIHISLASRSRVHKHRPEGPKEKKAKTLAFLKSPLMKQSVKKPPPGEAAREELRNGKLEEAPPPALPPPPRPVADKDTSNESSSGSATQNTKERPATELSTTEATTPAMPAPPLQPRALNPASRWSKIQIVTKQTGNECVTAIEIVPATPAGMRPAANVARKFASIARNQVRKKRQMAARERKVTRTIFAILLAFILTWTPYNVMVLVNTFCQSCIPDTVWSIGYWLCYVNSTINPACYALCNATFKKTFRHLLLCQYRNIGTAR

[16] = target: 5-hydroxytryptamine receptor 6 (Homo sapiens, UniProt P50406); test: as §1, with “HTR6” for “OPRK1”
Chain of 5-hydroxytryptamine receptor 6 (P50406 whole entry): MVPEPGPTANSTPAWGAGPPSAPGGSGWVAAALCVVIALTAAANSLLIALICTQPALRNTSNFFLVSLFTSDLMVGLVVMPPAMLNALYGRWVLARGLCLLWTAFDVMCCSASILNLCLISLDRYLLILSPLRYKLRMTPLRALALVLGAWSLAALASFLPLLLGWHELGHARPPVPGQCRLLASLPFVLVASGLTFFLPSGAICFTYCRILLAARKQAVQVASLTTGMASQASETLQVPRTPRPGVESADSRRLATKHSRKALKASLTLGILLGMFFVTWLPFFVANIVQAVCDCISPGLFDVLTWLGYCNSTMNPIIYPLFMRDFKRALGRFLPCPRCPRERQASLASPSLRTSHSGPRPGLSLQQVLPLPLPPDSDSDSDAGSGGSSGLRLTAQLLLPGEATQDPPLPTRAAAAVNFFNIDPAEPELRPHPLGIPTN

[17] = target: D(2) dopamine receptor (Homo sapiens, UniProt P14416); test: as §1, with “DRD2” for “OPRK1”
Chain of D(2) dopamine receptor (P14416 whole entry): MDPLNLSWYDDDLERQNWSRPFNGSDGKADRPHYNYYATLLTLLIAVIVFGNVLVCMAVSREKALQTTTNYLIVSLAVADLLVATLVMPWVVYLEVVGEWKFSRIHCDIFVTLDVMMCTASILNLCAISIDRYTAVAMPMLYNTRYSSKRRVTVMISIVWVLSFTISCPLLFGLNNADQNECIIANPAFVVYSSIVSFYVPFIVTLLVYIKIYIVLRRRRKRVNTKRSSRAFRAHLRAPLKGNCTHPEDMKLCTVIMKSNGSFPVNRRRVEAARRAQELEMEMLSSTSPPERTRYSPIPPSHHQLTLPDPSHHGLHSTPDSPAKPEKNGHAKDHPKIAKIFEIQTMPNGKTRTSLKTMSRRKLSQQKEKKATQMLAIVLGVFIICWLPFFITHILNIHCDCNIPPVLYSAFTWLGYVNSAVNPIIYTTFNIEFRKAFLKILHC

[18] = target: 5-hydroxytryptamine receptor 1B (Homo sapiens, UniProt P28222); test: as §1, with “HTR1B” for “OPRK1”
[19] = target: 5-hydroxytryptamine receptor 7 (Homo sapiens, UniProt P34969); test: as §1, with “HTR7” for “OPRK1”
[20] = target: T5, Alpha-2A adrenergic receptor (Homo sapiens, UniProt P08913); test: as §1, with “ADRA2A” for “OPRK1”
T5 sequence (P08913 whole entry): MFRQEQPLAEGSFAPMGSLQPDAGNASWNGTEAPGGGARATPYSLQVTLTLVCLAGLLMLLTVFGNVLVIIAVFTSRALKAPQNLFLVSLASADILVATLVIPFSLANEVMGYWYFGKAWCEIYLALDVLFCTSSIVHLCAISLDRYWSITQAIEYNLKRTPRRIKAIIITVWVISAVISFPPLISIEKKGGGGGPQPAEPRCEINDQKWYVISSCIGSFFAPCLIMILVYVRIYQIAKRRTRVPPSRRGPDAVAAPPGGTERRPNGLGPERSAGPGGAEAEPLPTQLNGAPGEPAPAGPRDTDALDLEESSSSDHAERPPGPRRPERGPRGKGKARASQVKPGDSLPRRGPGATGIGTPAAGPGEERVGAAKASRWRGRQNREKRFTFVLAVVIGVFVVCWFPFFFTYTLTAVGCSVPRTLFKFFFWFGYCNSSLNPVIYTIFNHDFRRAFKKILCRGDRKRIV

[21] = target: T6, 5-hydroxytryptamine receptor 3A (Homo sapiens, UniProt P46098); test: as §1, with “HTR3A” for “OPRK1”
T6 sequence (P46098 whole entry): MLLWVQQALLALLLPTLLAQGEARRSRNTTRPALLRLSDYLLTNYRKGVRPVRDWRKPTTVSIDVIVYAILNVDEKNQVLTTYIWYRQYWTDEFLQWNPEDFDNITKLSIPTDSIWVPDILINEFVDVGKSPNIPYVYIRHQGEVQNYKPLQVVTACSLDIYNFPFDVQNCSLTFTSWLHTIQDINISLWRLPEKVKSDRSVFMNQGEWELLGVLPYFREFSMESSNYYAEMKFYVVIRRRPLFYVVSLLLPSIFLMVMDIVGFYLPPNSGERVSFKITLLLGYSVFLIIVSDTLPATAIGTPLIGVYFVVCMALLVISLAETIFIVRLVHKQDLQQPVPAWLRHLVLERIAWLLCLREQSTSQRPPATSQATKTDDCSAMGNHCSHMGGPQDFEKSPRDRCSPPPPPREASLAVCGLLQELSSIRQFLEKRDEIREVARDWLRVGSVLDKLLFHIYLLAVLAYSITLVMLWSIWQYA

- Ki [1]: 0.704 µM
- Ki [2]: 3.05 µM
- Ki [3]: 0.789 µM
- Ki [4]: > 10 µM
SMILES: Cc1nc(C(=O)N2CCC[C@H]2Cc2nnc(-c3ccccc3)o2)c(-c2ccccc2F)s1

- Ki [5]: 0.391 µM
- Ki [6]: 5.28 µM
SMILES: CC(C)(C)NC[C@H](O)COc1nsnc1N1CCOCC1 [TIMOLOL]

- Ki [5]: 0.668 µM
- Ki [7]: 9.75 µM
- Ki [8]: > 10 µM
SMILES: CC[C@@H]1CN2C(=O)N(C)c3nc(-c4ccccc4)[nH]c3C2=N1

- Ki [9]: 2.81 µM
- Ki [4]: 9.07 µM
SMILES: CCOC(=O)c1cc(C#N)c(N2CCC(C(=O)NS(=O)(=O)Cc3ccccc3)CC2)nc1C

- Ki [5]: 1.1 µM
- Ki [4]: 6.75 µM
SMILES: CC(C)NC(=O)c1ccc(C#Cc2ccncc2)cn1

- Ki [10]: 0.944 µM
- Ki [11]: 1.85 µM
- Ki [12]: 1.31 µM
- Ki [6]: 0.74 µM
- Ki [13]: 0.258 µM
- Ki [14]: 0.152 µM
- Ki [15]: 0.0136 µM
SMILES: CCN(CC)CCCCC1CCN(CC(=O)N2c3ccccc3C(=O)Nc3cccnc32)CC1

SMILES: Cc1cccc(NC(=O)N[C@@H]2N=C(c3ccccc3)c3ccccc3N(C)C2=O)c1 [L-365260]
- Ki [2]: 6.21 µM
- Ki [6]: 3.02 µM
- Ki [7]: 2.14 µM

- Ki [5]: 5.38 µM
- Ki [2]: 1.7 µM
- Ki [16]: > 10 µM
- Ki [4]: > 10 µM
- Ki [17]: 9.77 µM
SMILES: Cc1cc(NC(=O)Nc2ccc(N(C)C)cc2)c2cc(F)cc(F)c2n1

- Ki [9]: 1.42 µM
- Ki [8]: > 10 µM
SMILES: O=C(O)C1CN(Cc2ccc(-c3nc4cc(Cc5ccccc5F)ccc4s3)c(F)c2)C1

- Ki [10]: 0.0985 µM
- Ki [11]: 2.66 µM
- Ki [18]: 1.75 µM
- Ki [19]: 0.407 µM
- Ki [12]: 0.366 µM
- Ki [20]: 1.08 µM
- Ki [6]: 0.299 µM
- Ki [9]: 0.717 µM
- Ki [16]: 0.825 µM
- Ki [4]: 0.244 µM
- Ki [15]: 0.917 µM
- Ki [17]: 1.73 µM
- Ki [21]: 0.339 µM
SMILES: CN1CCC(=C2c3ccccc3CC(=O)c3sccc32)CC1 [KETOTIFEN FUMARATE]

- Ki [10]: 0.467 µM
- Ki [1]: 2.05 µM
- Ki [9]: 0.912 µM
- Ki [4]: 3.44 µM
- Ki [14]: 0.707 µM
- Ki [15]: 0.249 µM
SMILES: Cc1cc(C(=O)N2Cc3cnn(C)c3Nc3ccccc32)ccc1CNC(=O)N1CCC[C@H]1C(=S)N1CCCN(C)CC1
